Experimental findings from ChEMBL document CHEMBL4602645, “Design, synthesis and evaluation of diosgenin carbamate derivatives as multitarget anti-Alzheimer's disease agents” (2020) are described below.

One assay concerns SH-SY5Y. The assay can be described thus: Neuroprotective activity against H2O2-induced cytotoxicity in human SH-SY5Y cells assessed as cell viability at 10 uM pretreated for 2 hrs followed by H2O2 challenge and measured after 24 hrs by MTT assay relative to control. To be noted: for viability at 10 µM: read-out: Activity. Format: functional. (In general: Tetrazolium assays rely on reduction of a dye to a coloured formazan, in cell work by metabolically active cells.)

The subject of the next assay is RAW264.7. The assay can be described thus: Antiinflammatory activity in mouse RAW264.7 cells assessed as inhibition of LPS-induced nitric oxide production at 10 uM preincubated for 2 hrs followed by LPS stimulation and measured after 24 hrs by Griess assay relative to control. Format: functional. In general terms: Nitrite, measured by Griess reagent, commonly stands in for NO production.

Activity calls are given as the source filed them. The calls are words filed in the database; no cut-off is given here.

What is called inhibition is the share of the control response that was lost under treatment.

Take `C[C@@H]1CC[C@@]2(OC1)O[C@H]1C[C@H]3[C@@H]4CC=C5C[C@@H](OC(=O)NCc6ccccc6F)CC[C@]5(C)[C@H]4CC[C@]3(C)[C@H]1[C@@H]2C`: the viability at 10 µM with SH-SY5Y was 21%.

For the compound `COc1cccc(CNC(=O)O[C@H]2CC[C@@]3(C)C(=CC[C@H]4[C@@H]5C[C@@H]6O[C@]7(CC[C@@H](C)CO7)[C@@H](C)[C@@H]6[C@@]5(C)CC[C@@H]43)C2)c1`, the viability at 10 µM in the assay with SH-SY5Y worked out at 38.8%. Besides, the inhibition at 10 µM with RAW264.7 stood at 9.8%.

As to `COc1cc(CN2CCN(C(=O)O[C@H]3CC[C@@]4(C)C(=CC[C@H]5[C@@H]6C[C@@H]7O[C@]8(CC[C@@H](C)CO8)[C@@H](C)[C@@H]7[C@@]6(C)CC[C@@H]54)C3)CC2)ccc1O`, in the assay on SH-SY5Y, the viability at 10 µM worked out at 23.1%.

As to `C[C@@H]1CC[C@@]2(OC1)O[C@H]1C[C@H]3[C@@H]4CC=C5C[C@@H](OC(=O)NC6CCCCC6)CC[C@]5(C)[C@H]4CC[C@]3(C)[C@H]1[C@@H]2C`, the viability at 10 µM with SH-SY5Y is 34.4%. In addition, the inhibition at 10 µM in the assay with RAW264.7 stood at 11.6%.

On to `C[C@@H]1CC[C@@]2(OC1)O[C@H]1C[C@H]3[C@@H]4CC=C5C[C@@H](OC(=O)NCc6cnccn6)CC[C@]5(C)[C@H]4CC[C@]3(C)[C@H]1[C@@H]2C`, for which the viability at 10 µM in the assay with SH-SY5Y was found to be 22.3%.

For the compound `Cc1ccccc1CNC(=O)O[C@H]1CC[C@@]2(C)C(=CC[C@H]3[C@@H]4C[C@@H]5O[C@]6(CC[C@@H](C)CO6)[C@@H](C)[C@@H]5[C@@]4(C)CC[C@@H]32)C1`, the viability at 10 µM in the assay on SH-SY5Y is 7.9%.

As to `CC(C)CN(C)C(=O)O[C@H]1CC[C@@]2(C)C(=CC[C@H]3[C@@H]4C[C@@H]5O[C@]6(CC[C@@H](C)CO6)[C@@H](C)[C@@H]5[C@@]4(C)CC[C@@H]32)C1`, the viability at 10 µM in the assay on SH-SY5Y is 17.7%.

As for `C[C@@H]1CC[C@@]2(OC1)O[C@H]1C[C@H]3[C@@H]4CC=C5C[C@@H](OC(=O)N6CCN(Cc7ccc(F)cc7)CC6)CC[C@]5(C)[C@H]4CC[C@]3(C)[C@H]1[C@@H]2C`, the viability at 10 µM with SH-SY5Y turned out to be 5.4%.

As to `COc1ccc(CNC(=O)O[C@H]2CC[C@@]3(C)C(=CC[C@H]4[C@@H]5C[C@@H]6O[C@]7(CC[C@@H](C)CO7)[C@@H](C)[C@@H]6[C@@]5(C)CC[C@@H]43)C2)cc1`, the viability at 10 µM in the assay with SH-SY5Y worked out at 53.5%. In addition, the inhibition at 10 µM with RAW264.7 stood at 18.6%.

Turning to `C[C@@H]1CC[C@@]2(OC1)O[C@H]1C[C@H]3[C@@H]4CC=C5C[C@@H](OC(=O)NCc6ccc(Cl)cc6)CC[C@]5(C)[C@H]4CC[C@]3(C)[C@H]1[C@@H]2C`, the viability at 10 µM in the assay on SH-SY5Y was 56.9%. In addition, the inhibition at 10 µM in the assay on RAW264.7 turned out to be 7%.

Take `C[C@@H]1CC[C@@]2(OC1)O[C@H]1C[C@H]3[C@@H]4CC=C5C[C@@H](OC(=O)NCc6ccncc6)CC[C@]5(C)[C@H]4CC[C@]3(C)[C@H]1[C@@H]2C`: in the assay with SH-SY5Y, the viability at 10 µM was found to be 42.1%. Besides, the inhibition at 10 µM in the assay on RAW264.7 came to 11.8%.

For the compound `C[C@@H]1CC[C@@]2(OC1)O[C@H]1C[C@H]3[C@@H]4CC=C5C[C@@H](OC(=O)NCc6cccc(Cl)c6)CC[C@]5(C)[C@H]4CC[C@]3(C)[C@H]1[C@@H]2C`, the viability at 10 µM with SH-SY5Y stood at 13.7%.

For `C[C@@H]1CC[C@@]2(OC1)O[C@H]1C[C@H]3[C@@H]4CC=C5C[C@@H](OC(=O)N6CCCCC6)CC[C@]5(C)[C@H]4CC[C@]3(C)[C@H]1[C@@H]2C`, the viability at 10 µM with SH-SY5Y came to 36.7%. Besides, in the assay on RAW264.7, the inhibition at 10 µM came to 12%.

Regarding `C[C@@H]1CC[C@@]2(OC1)O[C@H]1C[C@H]3[C@@H]4CC=C5C[C@@H](OC(=O)N6CCN(Cc7ccccc7)CC6)CC[C@]5(C)[C@H]4CC[C@]3(C)[C@H]1[C@@H]2C`, the viability at 10 µM with SH-SY5Y turned out to be 11.2%.

Consider `C[C@@H]1CC[C@@]2(OC1)O[C@H]1C[C@H]3[C@@H]4CC=C5C[C@@H](OC(=O)NCc6ccc(F)cc6)CC[C@]5(C)[C@H]4CC[C@]3(C)[C@H]1[C@@H]2C`, for which the viability at 10 µM in the assay with SH-SY5Y was determined as 60.1%. The inhibition at 10 µM in the assay on RAW264.7 came to 18.6%.

`CCNC(=O)O[C@H]1CC[C@@]2(C)C(=CC[C@H]3[C@@H]4C[C@@H]5O[C@]6(CC[C@@H](C)CO6)[C@@H](C)[C@@H]5[C@@]4(C)CC[C@@H]32)C1`: the viability at 10 µM in the assay with SH-SY5Y was 10.9%.

With `C[C@@H]1CC[C@@]2(OC1)O[C@H]1C[C@H]3[C@@H]4CC=C5C[C@@H](OC(=O)NCc6ccccc6Cl)CC[C@]5(C)[C@H]4CC[C@]3(C)[C@H]1[C@@H]2C`, the viability at 10 µM with SH-SY5Y worked out at 8.9%.

In the case of `Cc1cccc(CNC(=O)O[C@H]2CC[C@@]3(C)C(=CC[C@H]4[C@@H]5C[C@@H]6O[C@]7(CC[C@@H](C)CO7)[C@@H](C)[C@@H]6[C@@]5(C)CC[C@@H]43)C2)c1`, the viability at 10 µM with SH-SY5Y turned out to be 14.2%.

`C[C@@H]1CC[C@@]2(OC1)O[C@H]1C[C@H]3[C@@H]4CC=C5C[C@@H](OC(=O)N6CCCC6)CC[C@]5(C)[C@H]4CC[C@]3(C)[C@H]1[C@@H]2C`: the viability at 10 µM in the assay on SH-SY5Y worked out at 63.2%. For the same compound, the inhibition at 10 µM in the assay on RAW264.7 stood at 16.5%.

Turning to `C[C@@H]1CC[C@@]2(OC1)O[C@H]1C[C@H]3[C@@H]4CC=C5C[C@@H](OC(=O)N(C)Cc6ccc(Cl)cc6)CC[C@]5(C)[C@H]4CC[C@]3(C)[C@H]1[C@@H]2C`, the viability at 10 µM in the assay on SH-SY5Y stood at 43.9%. Moreover, in the assay on RAW264.7, the inhibition at 10 µM is 12.5%.

Turning to `C[C@@H]1CC[C@@]2(OC1)O[C@H]1C[C@H]3[C@@H]4CC=C5C[C@@H](OC(=O)N6CCN(Cc7ccc(O)cc7)CC6)CC[C@]5(C)[C@H]4CC[C@]3(C)[C@H]1[C@@H]2C`, the viability at 10 µM in the assay with SH-SY5Y was found to be 9.7%.

On to `COc1ccc(CN2CCN(C(=O)O[C@H]3CC[C@@]4(C)C(=CC[C@H]5[C@@H]6C[C@@H]7O[C@]8(CC[C@@H](C)CO8)[C@@H](C)[C@@H]7[C@@]6(C)CC[C@@H]54)C3)CC2)cc1`, for which the result in the assay with SH-SY5Y was inactive.

Regarding `C[C@@H]1CC[C@@]2(OC1)O[C@H]1C[C@H]3[C@@H]4CC=C5C[C@@H](OC(=O)NC6CC6)CC[C@]5(C)[C@H]4CC[C@]3(C)[C@H]1[C@@H]2C`, the result in the assay on SH-SY5Y was inactive.

Consider `COc1ccccc1CNC(=O)O[C@H]1CC[C@@]2(C)C(=CC[C@H]3[C@@H]4C[C@@H]5O[C@]6(CC[C@@H](C)CO6)[C@@H](C)[C@@H]5[C@@]4(C)CC[C@@H]32)C1`, for which the viability at 10 µM in the assay on SH-SY5Y worked out at 11.3%.

With `C[C@@H]1CC[C@@]2(OC1)O[C@H]1C[C@H]3[C@@H]4CC=C5C[C@@H](OC(=O)NCc6cccc(F)c6)CC[C@]5(C)[C@H]4CC[C@]3(C)[C@H]1[C@@H]2C`, the viability at 10 µM in the assay with SH-SY5Y turned out to be 27.4%.

Regarding `C[C@@H]1CC[C@@]2(OC1)O[C@H]1C[C@H]3[C@@H]4CC=C5C[C@@H](OC(=O)N6CCN(C)CC6)CC[C@]5(C)[C@H]4CC[C@]3(C)[C@H]1[C@@H]2C`, the viability at 10 µM in the assay with SH-SY5Y is 3.6%.

Take `COc1ccc(CN(C)C(=O)O[C@H]2CC[C@@]3(C)C(=CC[C@H]4[C@@H]5C[C@@H]6O[C@]7(CC[C@@H](C)CO7)[C@@H](C)[C@@H]6[C@@]5(C)CC[C@@H]43)C2)cc1`: the viability at 10 µM in the assay with SH-SY5Y was 19.4%.

As to `C[C@@H]1CC[C@@]2(OC1)O[C@H]1C[C@H]3[C@@H]4CC=C5C[C@@H](OC(=O)NCc6cccnc6)CC[C@]5(C)[C@H]4CC[C@]3(C)[C@H]1[C@@H]2C`, the viability at 10 µM in the assay with SH-SY5Y turned out to be 3.5%.

Turning to `CCN(C)C(=O)O[C@H]1CC[C@@]2(C)C(=CC[C@H]3[C@@H]4C[C@@H]5O[C@]6(CC[C@@H](C)CO6)[C@@H](C)[C@@H]5[C@@]4(C)CC[C@@H]32)C1`, the viability at 10 µM in the assay on SH-SY5Y amounted to 4.3%.

`C[C@@H]1CC[C@@]2(OC1)O[C@H]1C[C@H]3[C@@H]4CC=C5C[C@@H](OC(=O)NC(C)(C)C)CC[C@]5(C)[C@H]4CC[C@]3(C)[C@H]1[C@@H]2C`: the viability at 10 µM in the assay on SH-SY5Y came out at 7.7%.

As to `C[C@@H]1CC[C@@]2(OC1)O[C@H]1C[C@H]3[C@@H]4CC=C5C[C@@H](OC(=O)N(C)Cc6ccc(F)cc6)CC[C@]5(C)[C@H]4CC[C@]3(C)[C@H]1[C@@H]2C`, the viability at 10 µM in the assay on SH-SY5Y came out at 10.7%.

Consider `C[C@@H]1CC[C@@]2(OC1)O[C@H]1C[C@H]3[C@@H]4CC=C5C[C@@H](O)CC[C@]5(C)[C@H]4CC[C@]3(C)[C@H]1[C@@H]2C` [DISOGENIN], for which the viability at 10 µM in the assay with SH-SY5Y was determined as 6.7%.

Take `C[C@@H]1CC[C@@]2(OC1)O[C@H]1C[C@H]3[C@@H]4CC=C5C[C@@H](OC(=O)NC6CCCC6)CC[C@]5(C)[C@H]4CC[C@]3(C)[C@H]1[C@@H]2C`: the viability at 10 µM in the assay with SH-SY5Y stood at 3.3%.

Turning to `Cc1ccc(CN(C)C(=O)O[C@H]2CC[C@@]3(C)C(=CC[C@H]4[C@@H]5C[C@@H]6O[C@]7(CC[C@@H](C)CO7)[C@@H](C)[C@@H]6[C@@]5(C)CC[C@@H]43)C2)cc1`, the result with SH-SY5Y was inactive.

In the case of `Cc1ccc(CNC(=O)O[C@H]2CC[C@@]3(C)C(=CC[C@H]4[C@@H]5C[C@@H]6O[C@]7(CC[C@@H](C)CO7)[C@@H](C)[C@@H]6[C@@]5(C)CC[C@@H]43)C2)cc1`, in the assay on SH-SY5Y, the viability at 10 µM came to 26.3%.

As for `C[C@@H]1CC[C@@]2(OC1)O[C@H]1C[C@H]3[C@@H]4CC=C5C[C@@H](OC(=O)N6CCN(Cc7ccc(Cl)cc7)CC6)CC[C@]5(C)[C@H]4CC[C@]3(C)[C@H]1[C@@H]2C`, in the assay on SH-SY5Y, the viability at 10 µM came to 4.5%.

In the case of `C[C@@H]1CC[C@@]2(OC1)O[C@H]1C[C@H]3[C@@H]4CC=C5C[C@@H](OC(=O)NCc6ccc(C(F)(F)F)cc6)CC[C@]5(C)[C@H]4CC[C@]3(C)[C@H]1[C@@H]2C`, the outcome in the assay on SH-SY5Y was inactive.

Regarding `CC(C)CNC(=O)O[C@H]1CC[C@@]2(C)C(=CC[C@H]3[C@@H]4C[C@@H]5O[C@]6(CC[C@@H](C)CO6)[C@@H](C)[C@@H]5[C@@]4(C)CC[C@@H]32)C1`, in the assay on SH-SY5Y, the viability at 10 µM was found to be 25.3%.

With `C[C@@H]1CC[C@@]2(OC1)O[C@H]1C[C@H]3[C@@H]4CC=C5C[C@@H](OC(=O)N(C)Cc6ccccc6)CC[C@]5(C)[C@H]4CC[C@]3(C)[C@H]1[C@@H]2C`, the viability at 10 µM in the assay with SH-SY5Y was determined as 43.5%. Also, in the assay with RAW264.7, the inhibition at 10 µM turned out to be 20.8%.
